Results: patent US9023789B2, “Amylin analogs and pharmaceutical compositions thereof” (Novo Nordisk A/S, priority 2012, dated 2015)
Converted amounts (≈) assume the structure as drawn. Read-outs that look alike come from different tables or passages of the source. Numbered stars: 1 amine (or outer) side, 2 acyl side, 3 side chain; on linkers, the order of the positions; unused ones are H or OH. Bridge positions count the residues as written; N and C are the ends. Side chains are listed from the residue outwards. Peptide text beside a SMILES is read from it. * marks the point of attachment. C20 diacid = O=C(O)CCCCCCCCCCCCCCCCCCC(=O)*; γGlu = O=C(O)[C@H](CCC(=O)[*:2])N[*:1]; AEEA = NCCOCCOCC(=O)O

Assays:
[1] = ASSAY (IV) determination of solubility; assay type: physicochemical
Summary of the method: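 Solubility measured by UPLC of supernatant after centrifugation, following 18 h at room temperature. Peptide ([…] in water) was diluted 1:1 into 100 mM glycylglycine (pH 3.0, 4.0, 5.0) or bistrispropane (pH 6.0-8.0).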

[2] = target: T1, human amylin receptor (membranes from Amylin 3(a)/CRE-luc cells) (Homo sapiens, UniProt O60896+P30988); experiment: ASSAY (V) binding to the human amylin receptor (SPA, 125I-rat amylin);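 also: competition binding of cell membranes (35 ng/µL) mixed with SPA beads in 384-well plates at 40 µL total volume, read by scintillation counting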
T1 construct: expressed in transfected cells
T1 sequence (P30988 25-474): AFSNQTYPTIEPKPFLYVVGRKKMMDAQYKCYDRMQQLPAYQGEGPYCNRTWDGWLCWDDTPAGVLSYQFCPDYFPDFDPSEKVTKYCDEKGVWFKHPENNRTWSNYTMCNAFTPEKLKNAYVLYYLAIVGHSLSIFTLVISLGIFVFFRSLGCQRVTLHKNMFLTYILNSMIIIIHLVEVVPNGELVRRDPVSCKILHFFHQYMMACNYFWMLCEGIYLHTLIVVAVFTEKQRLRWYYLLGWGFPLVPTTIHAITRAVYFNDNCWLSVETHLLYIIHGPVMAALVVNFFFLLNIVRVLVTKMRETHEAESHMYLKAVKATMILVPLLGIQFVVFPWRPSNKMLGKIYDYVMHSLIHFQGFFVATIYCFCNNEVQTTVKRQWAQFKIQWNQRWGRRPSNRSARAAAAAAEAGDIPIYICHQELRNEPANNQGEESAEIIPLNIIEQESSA
T1 sequence (O60896 24-148 partner): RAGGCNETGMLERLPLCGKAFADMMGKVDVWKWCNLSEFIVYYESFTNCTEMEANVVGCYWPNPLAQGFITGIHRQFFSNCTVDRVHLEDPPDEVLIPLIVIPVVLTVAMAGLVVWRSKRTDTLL

[3] = target: T2, rat amylin receptor (rat calcitonin receptor + rat RAMP 3) (Rattus norvegicus, UniProt P32214+Q9JJ73); experiment: ASSAY (VI) binding to the rat amylin receptor; conditions: for IC50: binding to rat amylin receptor, read-out: rAmylin-R bind IC50
T2 construct: expressed in transfected cells; host or cells: BHK tk'ts 13 (transient, FuGENE 6), membranes
T2 sequence (P32214 25-479 isoform P32214-2 limits assumed): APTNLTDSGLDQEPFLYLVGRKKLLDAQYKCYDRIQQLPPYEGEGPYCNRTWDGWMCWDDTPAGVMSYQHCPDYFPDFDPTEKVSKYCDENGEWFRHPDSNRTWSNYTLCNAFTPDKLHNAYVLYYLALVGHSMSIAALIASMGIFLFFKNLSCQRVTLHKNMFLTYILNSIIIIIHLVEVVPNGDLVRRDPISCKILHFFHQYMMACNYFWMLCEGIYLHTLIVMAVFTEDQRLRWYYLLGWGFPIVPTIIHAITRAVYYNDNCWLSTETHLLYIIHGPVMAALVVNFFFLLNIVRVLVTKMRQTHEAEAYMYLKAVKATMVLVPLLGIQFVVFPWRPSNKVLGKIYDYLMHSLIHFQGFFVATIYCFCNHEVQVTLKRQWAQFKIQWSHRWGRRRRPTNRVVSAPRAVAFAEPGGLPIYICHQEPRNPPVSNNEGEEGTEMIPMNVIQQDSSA
T2 sequence (Q9JJ73 23-147 partner): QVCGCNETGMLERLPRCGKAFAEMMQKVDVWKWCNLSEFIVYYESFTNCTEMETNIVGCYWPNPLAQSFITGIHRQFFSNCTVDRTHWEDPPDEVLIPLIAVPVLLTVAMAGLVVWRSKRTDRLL
Summary of the method: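 Membranes for this rat amylin receptor binding assay came from BHK tk′ts 13 cells. The cells were transiently transfected with rat calcitonin receptor using the FuGENE® 6 reagent from Roche, as the manufacturer recommends. The cells were collected approximately 48 hours after transfection, and membranes were then prepared.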

rat calcitonin receptor = target: T3, rat calcitonin receptor (Rattus norvegicus, UniProt P32214); experiment: ASSAY (VIII) binding to the rat calcitonin receptor; conditions: Table 7, read-out: rCTR bind IC50
T3 construct: expressed in transfected cells; host or cells: BHK tk'ts 13 (transient, FuGENE 6), membranes
T3 sequence (P32214 25-479 isoform P32214-2 limits assumed): T2 sequence (P32214 25-479 isoform P32214-2 limits assumed)
Summary of the method: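 BHK tk′ts 13 cells, transient rat calcitonin receptor transfection; DMEM + 10% FBS; harvest ~48 h post-transfection; membrane prep.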

[4] = bistrispropane buffer, pH 6.5, read-out: Solubility pH 6.5 Concentration
[5] = bistrispropane buffer, pH 7.5, read-out: Solubility pH 7.5 Concentration
[6] = bistrispropane buffer, pH 6.0, read-out: Solubility pH 6.0 Concentration
[7] = bistrispropane buffer, pH 7.0, read-out: Solubility pH 7.0 Concentration
[8] = bistrispropane buffer, pH 8.0, read-out: Solubility pH 8.0 Concentration
[9] = glycylglycine buffer, pH 3.0, read-out: Solubility pH 3.0 Concentration
[10] = glycylglycine buffer, pH 4.0, read-out: Solubility pH 4.0 Concentration
[11] = glycylglycine buffer, pH 5.0, read-out: Solubility pH 5.0 Concentration
[12] = Table 5, selectivity, hCTR bind IC50 / hAmylin-R bind IC50
[13] = Table 5a, selectivity, hCTR bind IC50 / hAmylin-R bind IC50
[14] = Table 5b, selectivity, hCTR bind IC50 / hAmylin-R bind IC50
[15] = Table 5c, selectivity, hCTR bind IC50 / hAmylin-R bind IC50
[16] = Table 7, human binding selectivity, included for comparison
[17] = Table 7a (preferred compounds), human binding selectivity, included for comparison
[18] = ratio of human calcitonin receptor binding IC50 to human amylin receptor binding IC50
[19] = Table 7, rat binding selectivity, rCTR IC50 / rAmylin-R IC50
[20] = Table 7a (preferred compounds), rat binding selectivity, rCTR IC50 / rAmylin-R IC50
[21] = ratio of rCTR bind IC50 to rAmylin-R bind IC50

solubility at 18 h [1, 4] [µM]	solubility at 18 h [1, 5] [µM]	solubility at 18 h [1, 6] [µM]	solubility at 18 h [1, 7] [µM]	solubility at 18 h [1, 8] [µM]	solubility at 18 h [1, 9] [µM]	solubility at 18 h [1, 10] [µM]	solubility at 18 h [1, 11] [µM]	Ratio hCT/hAmylin binding [2, 12]	Ratio hCT/hAmylin binding [2, 13]	Ratio hCT/hAmylin binding [2, 14]	Ratio hCT/hAmylin binding [2, 15]	Ratio hCT/hAmylin binding [2, 16]	Ratio hCT/hAmylin binding [2, 17]	Ratio hCT/hAmylin binding [2, 18]	IC50 ([3]; Table 7) [nM]	Ratio rCT/rAmylin binding [3, 19]	Ratio rCT/rAmylin binding [3, 20]	Ratio rCT/rAmylin binding [3, 21]	IC50 (rat calcitonin receptor) [nM]	Structure (SMILES)
≥ 200	≥ 200	≥ 200	≥ 200	≥ 200	≥ 200	≥ 200	≥ 200	26.4	26.4	26.4	26.4	26.4	26.4	26.4	1.16	22.7	22.7	22.7	26.3	CC[C@H](C)[C@H](NC(=O)[C@H](C)NC(=O)CNC(=O)[C@H](Cc1ccccc1)NC(=O)[C@H](CC(N)=O)NC(=O)[C@@H]1CCCN1C(=O)[C@H](CO)NC(=O)[C@H](CO)NC(=O)[C@H](Cc1c[nH]cn1)NC(=O)[C@H](CCCNC(=N)N)NC(=O)[C@H](CC(C)C)NC(=O)[C@H](Cc1ccccc1)NC(=O)[C@H](CCC(=O)O)NC(=O)[C@H](C)NC(=O)[C@H](CC(C)C)NC(=O)[C@H](CCCNC(=N)N)NC(=O)[C@H](CCC(N)=O)NC(=O)[C@@H](NC(=O)[C@H](C)NC(=O)[C@@H]1CSSC[C@H](NC(=O)[C@@H](N)CCCCNC(=O)CC[C@H](NC(=O)CCCCCCCCCCCCCCCCCCC(=O)O)C(=O)O)C(=O)N[C@@H](CC(N)=O)C(=O)N[C@@H]([C@@H](C)O)C(=O)N[C@@H](C)C(=O)N[C@@H]([C@@H](C)O)C(=O)N1)[C@@H](C)O)C(=O)N1CCC[C@H]1C(=O)N[C@@H](CO)C(=O)N[C@@H](CO)C(=O)N[C@H](C(=O)N[C@@H](CC(N)=O)C(=O)N[C@H](C(=O)NCC(=O)N[C@@H](CO)C(=O)N[C@@H](Cc1c[nH]cn1)C(=O)N[C@H](C(=O)N[C@@H](Cc1ccc(O)cc1)C(N)=O)[C@@H](C)O)C(C)C)[C@@H](C)O [Example 128] (H-K([γGlu-C20 diacid])CNTATCATQRLAEFLRHSSPNFGAIPSSTNVGSHTY-NH2; disulfide 2-7 (inferred); N-terminus assumed)
≥ 200	≥ 200	≥ 200	≥ 200	≥ 200	≥ 200	≥ 200	≥ 200	29.1	29.1	29.1	29.1	29.1	29.1	29.1	3.14	158.8	158.8	158.8	498	CC[C@H](C)[C@H](NC(=O)[C@H](C)NC(=O)CNC(=O)[C@H](Cc1ccccc1)NC(=O)[C@H](CC(N)=O)NC(=O)[C@@H]1CCCN1C(=O)[C@H](CO)NC(=O)[C@H](CO)NC(=O)[C@H](Cc1c[nH]cn1)NC(=O)[C@H](CCCNC(=N)N)NC(=O)[C@H](CC(C)C)NC(=O)[C@H](Cc1ccccc1)NC(=O)[C@H](CCC(=O)O)NC(=O)[C@H](C)NC(=O)[C@H](CC(C)C)NC(=O)[C@H](CCCNC(=N)N)NC(=O)[C@H](CCC(N)=O)NC(=O)[C@@H](NC(=O)[C@H](C)NC(=O)[C@@H]1CSSC[C@H](NC(=O)[C@@H](N)CCCCNC(=O)CC[C@H](NC(=O)CC[C@H](NC(=O)CCCCCCCCCCCCCCCCCCC(=O)O)C(=O)O)C(=O)O)C(=O)N[C@@H](CC(N)=O)C(=O)N[C@@H]([C@@H](C)O)C(=O)N[C@@H](C)C(=O)N[C@@H]([C@@H](C)O)C(=O)N1)[C@@H](C)O)C(=O)N1CCC[C@H]1C(=O)N[C@@H](CO)C(=O)N[C@@H](CO)C(=O)N[C@H](C(=O)N[C@@H](CC(N)=O)C(=O)N[C@H](C(=O)NCC(=O)N[C@@H](Cc1c[nH]cn1)C(=O)N[C@@H](CCC(=O)O)C(=O)N[C@H](C(=O)N[C@@H](Cc1ccc(O)cc1)C(N)=O)[C@@H](C)O)C(C)C)[C@@H](C)O [Example 104] (H-K([γGlu-γGlu-C20 diacid])CNTATCATQRLAEFLRHSSPNFGAIPSSTNVGHETY-NH2; disulfide 2-7; N-terminus assumed)
≥ 200	≥ 200	≥ 200	≥ 200	110 (≈ 518 µg/mL)	≥ 200	≥ 200	≥ 200	26.8	26.8	26.8	26.8	26.8	26.8	26.8	0.623	67.1	67.1	67.1	41.8	CC[C@H](C)[C@H](NC(=O)[C@H](C)NC(=O)CNC(=O)[C@H](Cc1ccccc1)NC(=O)[C@H](CC(N)=O)NC(=O)[C@@H]1CCCN1C(=O)[C@H](CO)NC(=O)[C@H](CO)NC(=O)[C@H](Cc1c[nH]cn1)NC(=O)[C@H](CCCNC(=N)N)NC(=O)[C@H](CC(C)C)NC(=O)[C@H](Cc1ccccc1)NC(=O)[C@H](CC(N)=O)NC(=O)[C@H](C)NC(=O)[C@H](CC(C)C)NC(=O)[C@H](CCCNC(=N)N)NC(=O)[C@H](CCC(N)=O)NC(=O)[C@@H](NC(=O)[C@H](C)NC(=O)[C@@H]1CSSC[C@H](NC(=O)[C@H](CCCNC(=N)N)NC(=O)[C@@H](N)CCCCNC(=O)COCCOCCNC(=O)CC[C@H](NC(=O)CCCCCCCCCCCCCCCCCCC(=O)O)C(=O)O)C(=O)N[C@@H](CC(N)=O)C(=O)N[C@@H]([C@@H](C)O)C(=O)N[C@@H](C)C(=O)N[C@@H]([C@@H](C)O)C(=O)N1)[C@@H](C)O)C(=O)N1CCC[C@H]1C(=O)N[C@@H](CO)C(=O)N[C@@H](CO)C(=O)N[C@H](C(=O)N[C@@H](CC(N)=O)C(=O)N[C@H](C(=O)NCC(=O)N[C@@H](CO)C(=O)N[C@@H](Cc1c[nH]cn1)C(=O)N[C@H](C(=O)N[C@@H](Cc1ccc(O)cc1)C(N)=O)[C@@H](C)O)C(C)C)[C@@H](C)O [Example 45] (H-K([AEEA-γGlu-C20 diacid])RCNTATCATQRLANFLRHSSPNFGAIPSSTNVGSHTY-NH2; disulfide 3-8 (inferred))
